Measured values as given in ChEMBL document CHEMBL1134711, “Pharmacophore-based discovery of 3,4-disubstituted pyrrolidines as a novel class of monoamine transporter inhibitors” (Bioorg Med Chem Lett, 2001).

Experiments:
[1] = target: T1, Sodium-dependent dopamine transporter (Rattus norvegicus, UniProt P23977); assay: Inhibition of [3H]DA uptake at Dopamine transporter in rat cortex.
[2] = target: Sodium-dependent serotonin transporter (Rattus norvegicus, UniProt P31652); assay: Inhibition of [3H]5-HT uptake at Serotonin transporter in rat mid brain
Sequence of Sodium-dependent serotonin transporter (P31652 whole entry): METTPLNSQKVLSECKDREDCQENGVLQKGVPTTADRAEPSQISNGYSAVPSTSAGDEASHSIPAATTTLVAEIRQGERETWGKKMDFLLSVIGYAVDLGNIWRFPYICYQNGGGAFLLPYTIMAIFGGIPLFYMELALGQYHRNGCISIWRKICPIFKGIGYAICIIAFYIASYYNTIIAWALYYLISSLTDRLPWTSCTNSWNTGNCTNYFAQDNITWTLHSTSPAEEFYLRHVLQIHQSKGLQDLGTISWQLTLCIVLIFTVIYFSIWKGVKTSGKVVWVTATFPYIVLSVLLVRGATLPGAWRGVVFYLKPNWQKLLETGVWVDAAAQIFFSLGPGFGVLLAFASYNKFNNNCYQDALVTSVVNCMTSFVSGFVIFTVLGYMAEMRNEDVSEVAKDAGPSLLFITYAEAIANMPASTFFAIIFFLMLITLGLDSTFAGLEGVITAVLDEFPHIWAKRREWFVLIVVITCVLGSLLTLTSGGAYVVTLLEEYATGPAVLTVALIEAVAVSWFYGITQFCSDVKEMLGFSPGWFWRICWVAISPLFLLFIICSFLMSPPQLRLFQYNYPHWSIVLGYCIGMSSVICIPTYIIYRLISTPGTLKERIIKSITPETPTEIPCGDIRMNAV

[3] = target: T1, Sodium-dependent dopamine transporter; assay: Functional cocaine antagonism was evaluated by inhibition of [3H]dopamine reuptake
[4] = target: T1, Sodium-dependent dopamine transporter; assay: Functional cocaine antagonism was evaluated by inhibition of [3H]dopamine reuptake at a concentration of 100 nM with cocaine
[5] = target: T1, Sodium-dependent dopamine transporter; assay: Functional cocaine antagonism was evaluated by inhibition of [3H]dopamine reuptake at a concentration of 300 nM with cocaine
[6] = In vitro Ki against [3H]mazindol binding.
[7] = target: Norepinephrine transporter (Rattus norvegicus, UniProt Q9WTR4); assay: Inhibition of [3H]NE uptake at Norepinephrine transporter in rat parietal/occipital cortex was determined
Sequence of Norepinephrine transporter (Q9WTR4 whole entry): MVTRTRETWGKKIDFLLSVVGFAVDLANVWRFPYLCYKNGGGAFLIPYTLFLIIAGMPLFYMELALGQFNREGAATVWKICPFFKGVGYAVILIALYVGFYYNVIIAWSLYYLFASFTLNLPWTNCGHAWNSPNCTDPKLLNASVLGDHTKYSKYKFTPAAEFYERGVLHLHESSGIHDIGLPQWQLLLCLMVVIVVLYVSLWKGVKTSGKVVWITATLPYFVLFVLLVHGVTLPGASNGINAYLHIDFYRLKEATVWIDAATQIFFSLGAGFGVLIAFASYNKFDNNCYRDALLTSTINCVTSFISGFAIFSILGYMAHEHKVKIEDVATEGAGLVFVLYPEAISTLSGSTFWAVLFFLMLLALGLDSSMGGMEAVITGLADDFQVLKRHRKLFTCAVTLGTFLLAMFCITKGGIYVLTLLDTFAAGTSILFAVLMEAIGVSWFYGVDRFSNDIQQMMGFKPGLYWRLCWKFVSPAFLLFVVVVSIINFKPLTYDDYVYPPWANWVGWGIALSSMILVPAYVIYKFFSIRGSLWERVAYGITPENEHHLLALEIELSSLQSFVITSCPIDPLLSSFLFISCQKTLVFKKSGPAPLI

[8] = target: T1, Sodium-dependent dopamine transporter; assay: Functional cocaine antagonism was evaluated by inhibition of [3H]dopamine reuptake at a concentration of 30 nM with cocaine

T1 sequence (P23977 whole entry): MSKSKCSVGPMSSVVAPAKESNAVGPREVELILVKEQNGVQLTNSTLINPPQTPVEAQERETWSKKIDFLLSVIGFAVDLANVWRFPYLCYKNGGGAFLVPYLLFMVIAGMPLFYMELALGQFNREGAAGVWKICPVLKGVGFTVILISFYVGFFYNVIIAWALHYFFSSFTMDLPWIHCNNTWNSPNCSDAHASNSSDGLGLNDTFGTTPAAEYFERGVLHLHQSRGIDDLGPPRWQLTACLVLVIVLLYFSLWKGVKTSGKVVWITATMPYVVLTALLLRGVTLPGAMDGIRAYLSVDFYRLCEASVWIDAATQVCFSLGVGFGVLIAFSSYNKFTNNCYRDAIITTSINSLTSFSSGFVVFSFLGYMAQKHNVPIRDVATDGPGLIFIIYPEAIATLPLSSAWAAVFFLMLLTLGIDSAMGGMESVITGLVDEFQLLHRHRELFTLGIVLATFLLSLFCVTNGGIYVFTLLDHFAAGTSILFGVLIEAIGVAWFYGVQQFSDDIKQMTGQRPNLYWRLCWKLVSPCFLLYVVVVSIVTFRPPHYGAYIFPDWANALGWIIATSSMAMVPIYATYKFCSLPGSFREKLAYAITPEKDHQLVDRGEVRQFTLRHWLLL

Structure (SMILES): CN1C[C@@H](C(=O)c2ccc(Cl)cc2)[C@H](c2ccc(Cl)cc2Cl)C1
- Ki [1]: 1260 nM

Structure (SMILES): CN1C[C@@H](C(=O)c2ccccn2)[C@H](c2ccccc2)C1
- Ki [1]: 630 nM
- Ki [2]: 830 nM
- IC50 [3]: 663 nM
- IC50 [4]: 494 nM
- IC50 [5]: 645 nM
- Ki [6]: 510 nM

Structure (SMILES): CN1C[C@@H](C(=O)c2ccccc2)[C@H](c2ccccc2)C1
- Ki [1]: 1410 nM
- Ki [7]: 150 nM
- Ki [2]: 750 nM
- Ki [6]: 1180 nM

Structure (SMILES): CN1C[C@@H](C(=O)c2ccccc2Cl)[C@H](c2ccc(Cl)cc2)C1
- Ki [1]: 610 nM
- Ki [7]: 69 nM
- Ki [2]: 540 nM
- Ki [6]: 340 nM

Structure (SMILES): CN1C[C@@H](C(=O)c2cccc(C(F)(F)F)c2)[C@H](c2ccc(Cl)cc2)C1
- Ki [1]: 3170 nM

Structure (SMILES): COC(=O)[C@@H]1C2CC[C@@H](C[C@@H]1OC(=O)c1ccccc1)N2C (single isomer, unassigned) [COCAINE]
- Ki [6]: 230 nM

Structure (SMILES): O=C(c1ccccc1)[C@@H]1CN(c2ccccc2)C[C@H]1c1ccc(Cl)cc1
- Ki [1]: > 10000 nM

Structure (SMILES): Cc1ccc([C@@H]2CN(C)C[C@H]2C(=O)c2ccccc2F)cc1
- Ki [1]: 1930 nM

Structure (SMILES): O=C(c1cccs1)[C@@H]1CN(c2ccccc2)C[C@H]1c1ccccc1
- Ki [1]: > 10000 nM
- Ki [7]: > 10000 nM
- Ki [2]: > 10000 nM
- Ki [6]: > 10000 nM

Structure (SMILES): CN1C[C@@H](C(=O)c2cccs2)[C@H](c2ccc(Cl)cc2)C1
- Ki [1]: 200 nM
- Ki [7]: 31 nM
- Ki [2]: 230 nM
- IC50 [3]: 308 nM
- IC50 [4]: 641 nM
- IC50 [8]: 46 nM
- Ki [6]: 84 nM

Structure (SMILES): CN1C[C@@H](C(=O)c2ccc(Cl)cc2)[C@H](c2ccccc2)C1
- Ki [1]: 1220 nM
- Ki [7]: 430 nM
- Ki [2]: 520 nM
- Ki [6]: 1250 nM

Structure (SMILES): CN1C[C@@H](C(=O)c2ccc(F)cc2)[C@H](c2ccc(F)cc2)C1
- Ki [1]: 3960 nM
- Ki [7]: 800 nM
- Ki [2]: 380 nM

Structure (SMILES): O=C(c1ccccn1)[C@@H]1CN(c2ccccc2)C[C@H]1c1ccccc1
- Ki [1]: > 10000 nM
- Ki [7]: > 10000 nM
- Ki [2]: > 10000 nM
- Ki [6]: > 10000 nM

Structure (SMILES): Cc1ccc([C@@H]2CN(c3ccccc3)C[C@H]2C(=O)c2ccc(F)cc2)cc1
- Ki [1]: > 10000 nM

Structure (SMILES): COc1ccccc1C(=O)[C@@H]1CN(c2ccccc2)C[C@H]1c1ccc(Cl)cc1
- Ki [1]: > 10000 nM

Structure (SMILES): COc1ccc(C(=O)[C@@H]2CN(C)C[C@H]2c2ccc(Cl)cc2)cc1
- Ki [1]: 1160 nM

Structure (SMILES): CN1C[C@@H](C(=O)c2ccc(Cl)cc2)[C@H](c2ccccc2F)C1
- Ki [1]: 1280 nM
